Values joined by “and” are separate entries in the source; they are usually repeats but may differ in a detail not shown here. Identical values can stand only once.
Legend:
[1] = system: NUGC-3_KO_p53i; test: p53 pathway gene profiling, doxycycline-induced WT p53; type: cell-based, human; conditions: doxycycline 50 ng/ml
[2] = Compound 2 and metabolites in rat plasma, 50 mg/kg PO QD×10; type: in vivo; conditions: for Average Concentration: rat plasma
Experimental: The proposed metabolite pathway was determined in vitro, and levels of potential metabolites were measured by LC/MS-MS in rat plasma remaining from the dose rising 10-day repeat dose study in rats. Six potential metabolites were quantified in the low (50 mg/kg) single dose rats. […] Rats were rotated between timepoints to form a composite PK curve. […] A 100 μL aliquot of the supernatant was transferred to the sample plate and mixed with 100 μL of water, then the plate was shaken at 800 rpm for 10 min. 0.5-2 μL supernatant was then injected into a Triple Quad 6500+ for LC-MS/MS analysis. The standard curve was generated at 1-3000 ng/mL for the compounds in rat plasma (EDTA-K2).
The male and female PK parameters were averaged together since there was <2-fold variation between the genders. All values deemed below the level of quantification (BLQ) were excluded from the PK parameters calculations.

[3] = n=3, * basal expression level is low
[4] = Compound 2 50 mg/kg PO QD×1, 1 h, 50 mg/kg
[5] = Compound 2 50 mg/kg PO QD×1, 2 h, 50 mg/kg
[6] = Compound 2 50 mg/kg PO QD×1, 4 h, 50 mg/kg
[7] = Compound 2 50 mg/kg PO QD×1, 8 h, 50 mg/kg
[8] = Compound 2 50 mg/kg PO QD×1, 24 h
[9] = Compound 2 50 mg/kg PO QD×10, 1 h post tenth dose, 50 mg/kg
[10] = Compound 2 50 mg/kg PO QD×10, 2 h post tenth dose, 50 mg/kg
[11] = Compound 2 50 mg/kg PO QD×10, 4 h post tenth dose, 50 mg/kg
[12] = Compound 2 50 mg/kg PO QD×10, 8 h post tenth dose, 50 mg/kg
[13] = Compound 2 50 mg/kg PO QD×10, 24 h post tenth dose, 50 mg/kg
[14] = Compound 2 50 mg/kg PO QD×10, 48 h post tenth dose
[15] = Compound 2 50 mg/kg PO QD×10, 72 h post tenth dose
[16] = Compound 2 50 mg/kg PO QD×10, 96 h post tenth dose
[17] = Day 1, of Compound 2 AUC0-24, rat, 50 mg/kg PO
[18] = Day 1, rat, Compound 2 50 mg/kg PO
[19] = Day 10, of Compound 2 AUC0-last, rat, 50 mg/kg PO QD×10
[20] = Day 10, rat, Compound 2 50 mg/kg PO QD×10
[21] = Compound 2 50 mg/kg PO QD×1, 1 h
[22] = Compound 2 50 mg/kg PO QD×1, 2 h
[23] = Compound 2 50 mg/kg PO QD×1, 4 h
[24] = Compound 2 50 mg/kg PO QD×1, 8 h
[25] = Compound 2 50 mg/kg PO QD×10, 1 h post tenth dose
[26] = Compound 2 50 mg/kg PO QD×10, 2 h post tenth dose
[27] = Compound 2 50 mg/kg PO QD×10, 4 h post tenth dose
[28] = Compound 2 50 mg/kg PO QD×10, 8 h post tenth dose
[29] = Compound 2 50 mg/kg PO QD×10, 24 h post tenth dose
[30] = after single (first) 50 mg/kg PO dose of Compound 2
[31] = repeat 10 day administration of Compound 2, 50 mg/kg PO

SMILES: C[C@H]1c2cccc(O)c2C(=O)C2=C(O)[C@]3(O)C(=O)C(C(N)=O)=C(O)[C@@H](N(C)C)[C@@H]3[C@@H](O)[C@@H]21 [Doxycycline]
- APAF1 fold change ([1]; n=3): 2.40 ± 0.16 fold
- BAX fold change ([1]; n=3): 2.85 ± 0.08 fold
- BBC3 fold change ([1]; n=3): 2.46 ± 0.06 fold
- BIRC5 fold change ([1]; n=3): 0.52 ± 0.03 fold
- BRCA1 fold change ([1]; n=3): 0.67 ± 0.03 fold
- BRCA2 fold change ([1]; n=3): 0.74 ± 0.02 fold
- CCNB1 fold change ([1]; n=3): 0.57 ± 0.01 fold
- CCNE 1 fold change ([1]; n=3): 0.70 ± 0.01 fold
- CCNG 1 fold change ([1]; n=3): 1.65 ± 0.05 fold
- CDC25A fold change ([1]; n=3): 0.61 ± 0.04 fold
- CDC25C fold change ([1]; n=3): 0.58 ± 0.02 fold
- CDK1 fold change ([1]; n=3): 0.71 ± 0.01 fold
- CDKN1A fold change ([1]; n=3): 37.37 ± 0.55 fold
- CHEK1 fold change ([1]; n=3): 0.71 ± 0.02 fold
- CHEK2 fold change ([1]; n=3): 0.74 ± 0.01 fold
- DNMT1 fold change ([1]; n=3): 0.78 ± 0.03 fold
- E2F1 fold change ([1]; n=3): 0.63 ± 0.02 fold
- FAS fold change ([1]; n=3): 7.34 ± 0.04 fold
- GADD45A fold change ([1]; n=3): 3.68 ± 0.20 fold
- MDM2 fold change ([1]; n=3): 12.97 ± 0.29 fold
- MSH2 fold change ([1]; n=3): 0.70 ± 0.02 fold
- PIDD1 fold change ([1]; n=3): 2.75 ± 0.05 fold
- PPM1D fold change ([1]; n=3): 2.21 ± 0.10 fold
- PRC1 fold change ([1]; n=3): 0.64 ± 0.01 fold
- SESN2 fold change ([1]; n=3): 2.50 ± 0.12 fold
- TNFRSF10B fold change ([1]; n=3): 1.88 ± 0.04 fold
- TNFRSF10D fold change ([1]; n=3): 2.73 ± 0.04 fold
- TP53 fold change ([1]; n=3): 25.95 ± 0.84 fold
- BTG2* fold change [1, 3]: 27.82 ± 2.42 fold
- EGR1* fold change [1, 3]: 4.40 ± 0.50 fold
- IL6* fold change [1, 3]: 1.23 ± 0.01 fold

SMILES: CCn1c(C#CCNc2ccc(Cl)cc2)cc2cc(CNC3CCN(C)CC3)ccc21 [Compound 7, 1-(p-Chlorophenylamino)-3-{1-ethyl-5-[(1-methyl-4-piperidylamino)methyl]-1H-indol-2-yl}-2-propyne]
- calculated concentration in rat plasma (individual rats) [2, 4]: 1.44 ng/mL and 1.36 ng/mL and 1.19 ng/mL and 1.33 ng/mL and 1.49 ng/mL and 1.39 ng/mL
- calculated concentration in rat plasma (individual rats) [2, 5]: 4.12 ng/mL and 1.95 ng/mL and 1.67 ng/mL and 1.93 ng/mL and 1.81 ng/mL and 1.70 ng/mL
- calculated concentration in rat plasma (individual rats) [2, 6]: 2.46 ng/mL and 2.66 ng/mL and 2.27 ng/mL and 1.68 ng/mL and 1.81 ng/mL and 2.04 ng/mL
- calculated concentration in rat plasma (individual rats) [2, 7]: 3.52 ng/mL and 2.72 ng/mL and 2.19 ng/mL and 2.24 ng/mL and 2.20 ng/mL and 2.11 ng/mL
- calculated concentration in rat plasma (individual rats) [2, 8]: BLQ
- calculated concentration in rat plasma (individual rats) [2, 9]: 1.25 ng/mL and 1.46 ng/mL and 1.42 ng/mL and 1.49 ng/mL and 1.92 ng/mL and 1.65 ng/mL
- calculated concentration in rat plasma (individual rats) [2, 10]: 1.81 ng/mL and 2.19 ng/mL and 1.99 ng/mL and 1.41 ng/mL and 1.79 ng/mL and 1.66 ng/mL
- calculated concentration in rat plasma (individual rats) [2, 11]: 2.46 ng/mL and 2.18 ng/mL and 2.20 ng/mL and 2.42 ng/mL and 2.00 ng/mL and 1.30 ng/mL
- calculated concentration in rat plasma (individual rats) [2, 12]: 2.31 ng/mL and 2.45 ng/mL and 2.79 ng/mL and 1.81 ng/mL and 2.20 ng/mL and 2.21 ng/mL
- calculated concentration in rat plasma (individual rats) [2, 13]: BLQ (3×) and 1.07 ng/mL and 1.06 ng/mL and 1.16 ng/mL
- calculated concentration in rat plasma (individual rats) [2, 14]: BLQ
- calculated concentration in rat plasma (individual rats) [2, 15]: BLQ
- calculated concentration in rat plasma (individual rats) [2, 16]: BLQ
- % of Parent [2, 17]: 0.0%
- AUC0-24 [2, 18]: 16 ng·h/mL
- % of Parent [2, 19]: 0.0%
- AUC0-last [2, 20]: 28 ng·h/mL
- Average Concentration [2, 21]: 1.37 ng/mL
- Average Concentration [2, 22]: 2.20 ng/mL
- Average Concentration [2, 23]: 2.15 ng/mL
- Average Concentration [2, 24]: 2.50 ng/mL
- Average Concentration [2, 8]: BLQ
- Average Concentration [2, 25]: 1.53 ng/mL
- Average Concentration [2, 26]: 1.81 ng/mL
- Average Concentration [2, 27]: 2.09 ng/mL
- Average Concentration [2, 28]: 2.30 ng/mL
- Average Concentration [2, 29]: 1.10 ng/mL
- Average Concentration [2, 14]: BLQ
- Average Concentration [2, 15]: BLQ
- Average Concentration [2, 16]: BLQ

SMILES: CCn1c(C#CCNc2ccc(F)cc2)cc2cc(CNC)ccc21 [Compound 5, 3-{1-Ethyl-5-[(methylamino)methyl]-1H-indol-2-yl}-1-(p-fluorophenylamino)-2-propyne]
- calculated concentration in rat plasma (individual rats) [2, 4]: 576 ng/mL and 407 ng/mL and 342 ng/mL and 649 ng/mL and 486 ng/mL and 311 ng/mL
- calculated concentration in rat plasma (individual rats) [2, 5]: 1050 ng/mL and 561 ng/mL and 617 ng/mL and 665 ng/mL and 630 ng/mL and 572 ng/mL
- calculated concentration in rat plasma (individual rats) [2, 6]: 732 ng/mL and 850 ng/mL and 1120 ng/mL and 738 ng/mL and 774 ng/mL and 861 ng/mL
- calculated concentration in rat plasma (individual rats) [2, 7]: 941 ng/mL and 742 ng/mL and 901 ng/mL and 752 ng/mL and 872 ng/mL and 696 ng/mL
- calculated concentration in rat plasma (individual rats) ([2]; Compound 2 50 mg/kg PO QD×1, 24 h, 50 mg/kg): 218 ng/mL and 144 ng/mL and 208 ng/mL and 266 ng/mL and 246 ng/mL and 151 ng/mL
- calculated concentration in rat plasma (individual rats) [2, 9]: 532 ng/mL and 434 ng/mL and 580 ng/mL and 539 ng/mL and 753 ng/mL and 738 ng/mL
- calculated concentration in rat plasma (individual rats) [2, 10]: 513 ng/mL and 639 ng/mL and 761 ng/mL and 625 ng/mL and 671 ng/mL and 616 ng/mL
- calculated concentration in rat plasma (individual rats) [2, 11]: 789 ng/mL and 675 ng/mL and 859 ng/mL and 1010 ng/mL and 887 ng/mL and 701 ng/mL
- calculated concentration in rat plasma (individual rats) [2, 12]: 619 ng/mL and 737 ng/mL and 807 ng/mL and 812 ng/mL and 881 ng/mL and 772 ng/mL
- calculated concentration in rat plasma (individual rats) [2, 13]: 216 ng/mL and 376 ng/mL and 234 ng/mL and 486 ng/mL and 477 ng/mL and 484 ng/mL
- calculated concentration in rat plasma (individual rats) ([2]; Compound 2 50 mg/kg PO QD×10, 48 h post tenth dose, 50 mg/kg): 6.57 ng/mL and 22.4 ng/mL and 13.6 ng/mL and 55.0 ng/mL and 27.3 ng/mL and 31.2 ng/mL
- calculated concentration in rat plasma (individual rats) ([2]; Compound 2 50 mg/kg PO QD×10, 72 h post tenth dose, 50 mg/kg): 3.25 ng/mL and 2.30 ng/mL and BLQ (3×) and 17.3 ng/mL
- calculated concentration in rat plasma (individual rats) ([2]; Compound 2 50 mg/kg PO QD×10, 96 h post tenth dose, 50 mg/kg): BLQ (5×) and 1.27 ng/mL
- % of Parent [2, 17]: 17.6%
- AUC0-24 [2, 18]: 13840 ng·h/mL
- % of Parent [2, 19]: 18.1%
- AUC0-last [2, 20]: 19943 ng·h/mL
- AUC0-24 [2, 30]: 13,840 ng·h/mL
- percent of the parent Compound 2 AUC0-24 [2, 30]: 17.6%
- Average Concentration [2, 21]: 461.83 ng/mL
- Average Concentration [2, 22]: 682.50 ng/mL
- Average Concentration [2, 23]: 845.83 ng/mL
- Average Concentration [2, 24]: 817.33 ng/mL
- Average Concentration [2, 8]: 205.50 ng/mL
- Average Concentration [2, 25]: 596.00 ng/mL
- Average Concentration [2, 26]: 637.50 ng/mL
- Average Concentration [2, 27]: 820.17 ng/mL
- Average Concentration [2, 28]: 771.33 ng/mL
- Average Concentration [2, 29]: 378.83 ng/mL
- Average Concentration [2, 14]: 26.01 ng/mL
- Average Concentration [2, 15]: 7.62 ng/mL
- Average Concentration [2, 16]: 1.27 ng/mL
- AUC0-last [2, 31]: 19,943 ng·h/mL
- percent of parent AUC0-last [2, 31]: 18.1%

From patent publication US20230049952A1, “METHODS AND COMPOUNDS FOR RESTORING MUTANT P53 FUNCTION” (PMV Pharmaceuticals, Inc., priority 2020, published 2023)
